Results published in PubChem BioAssay AID330 (DTP/NCI, 2004).
Where “and” joins values, the source holds several entries; their conditions need not be identical. Equal values may be shown once. Inconclusive results and toxic doses are left out.

Tested on: P388 leukemia ip, CD2F1 mice, survival T/C
Test: NCI In Vivo Anticancer Drug Screen. Data for tumor model P388 Leukemia (intraperitoneal) in CD2F1 (CDF1) mice
Settings: endpoint: median survival time, higher = longer survival
Procedure, shortened: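 Mice carrying the transplanted tumor received test compound or vehicle. Survival was recorded in each group, and the value is the treated-group measurement divided by that of the vehicle-treated control group.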

[1] = dose: 50.0 mg/kg/injection, schedule: Q01DX005 (ip), vehicle: Klucel (hydroxypropylcellulose) (HPC)
[2] = dose: 100.0 mg/kg/injection, schedule: Q01DX005 (ip), vehicle: Klucel (hydroxypropylcellulose) (HPC)
[3] = dose: 200.0 mg/kg/injection, schedule: Q01DX005 (ip), vehicle: Klucel (hydroxypropylcellulose) (HPC)
[4] = dose: 12.5 mg/kg/injection, schedule: Q01DX005 (ip), vehicle: saline with Tween-80
[5] = dose: 25.0 mg/kg/injection, schedule: Q01DX005 (ip), vehicle: saline with Tween-80
[6] = dose: 50.0 mg/kg/injection, schedule: Q01DX005 (ip), vehicle: saline with Tween-80
[7] = dose: 12.5 mg/kg/injection, schedule: Q01DX009 (ip), vehicle: saline
[8] = dose: 25.0 mg/kg/injection, schedule: Q01DX009 (ip), vehicle: saline
[9] = dose: 50.0 mg/kg/injection, schedule: Q01DX009 (ip), vehicle: saline
[10] = dose: 100.0 mg/kg/injection, schedule: Q01DX009 (ip), vehicle: saline
[11] = dose: 50.0 mg/kg/injection, schedule: Q01DX009 (ip), vehicle: saline with Tween-80
[12] = dose: 100.0 mg/kg/injection, schedule: Q01DX009 (ip), vehicle: saline with Tween-80
[13] = dose: 200.0 mg/kg/injection, schedule: Q01DX009 (ip), vehicle: saline with Tween-80

## CCCC1OP(=O)(N(CCOC(C)=O)CCOC(C)=O)OCC1CC (stereo not drawn)
[1]
  T/C: 96 % of control
[2]
  T/C: 98 % of control
[3]
  T/C: 96 % of control

## CNC(=O)Nc1c(C)cccc1C
dose: 25.0 mg/kg/injection, schedule: Q04DX003 (ip), vehicle: saline with Tween-80
  T/C: 104 % of control
dose: 50.0 mg/kg/injection, schedule: Q04DX003 (ip), vehicle: saline with Tween-80
  T/C: 100 % of control
dose: 100.0 mg/kg/injection, schedule: Q04DX003 (ip), vehicle: saline with Tween-80
  T/C: 105 % of control
dose: 200.0 mg/kg/injection, schedule: Q04DX003 (ip), vehicle: saline with Tween-80
  T/C: 107 % of control

## O=S1(F)=NP(N2CC2)(N2CC2)=NP(N2CC2)(N2CC2)=N1 (stereo not drawn)
dose: 5.0 mg/kg/injection, schedule: Q04DX003 (ip), vehicle: saline
  T/C: 86 % of control
dose: 10.0 mg/kg/injection, schedule: Q04DX003 (ip), vehicle: saline
  T/C: 102 % of control
dose: 20.0 mg/kg/injection, schedule: Q04DX003 (ip), vehicle: saline
  T/C: 86 % of control
dose: 40.0 mg/kg/injection, schedule: Q04DX003 (ip), vehicle: saline
  T/C: 234 % of control

## CN1CCC(C(C)(C)C)CC1
dose: 25.0 mg/kg/injection, schedule: Q01DX005 (ip), vehicle: Klucel (hydroxypropylcellulose) (HPC)
  T/C: 89 % of control
[1]
  T/C: 94 % of control
[2]
  T/C: 93 % of control
[3]
  T/C: 98 % of control

## S=C=NP1(N=C=S)=NP(N=C=S)(N=C=S)=NP(N=C=S)(N=C=S)=NP(N=C=S)(N=C=S)=N1 (stereo not drawn)
[4]
  T/C: 100 % of control
[5]
  T/C: 99 % of control
[6]
  T/C: 104 % of control and 109 % of control
dose: 100.0 mg/kg/injection, schedule: Q01DX005 (ip), vehicle: saline with Tween-80
  T/C: 114 % of control

## NC(=O)CCSC(N)=S
[1]
  T/C: 100 % of control
[2]
  T/C: 109 % of control
[3]
  T/C: 100 % of control

## COc1c(C)[nH]ccc1=O
[7]
  T/C: 102 % of control and 105 % of control
[8]
  T/C: 101 % of control and 103 % of control
[9]
  T/C: 99 % of control and 102 % of control
[10]
  T/C: 99 % of control and 105 % of control
dose: 200.0 mg/kg/injection, schedule: Q01DX009 (ip), vehicle: saline
  T/C: 104 % of control and 107 % of control
dose: 400.0 mg/kg/injection, schedule: Q01DX009 (ip), vehicle: saline
  T/C: 104 % of control and 106 % of control

## Cc1[nH]c(=O)[nH]c(=O)c1CO
[11]
  T/C: 100 % of control
[12]
  T/C: 102 % of control
[13]
  T/C: 101 % of control
dose: 400.0 mg/kg/injection, schedule: Q01DX009 (ip), vehicle: saline with Tween-80
  T/C: 100 % of control

## Nc1nc(-c2ccc([N+](=O)[O-])cc2)c([N+](=O)[O-])c(=O)[nH]1
dose: 3.0 mg/kg/injection, schedule: Q01DX009 (ip), vehicle: saline with Tween-80
  T/C: 105 % of control
dose: 6.0 mg/kg/injection, schedule: Q01DX009 (ip), vehicle: saline with Tween-80
  T/C: 110 % of control
dose: 12.0 mg/kg/injection, schedule: Q01DX009 (ip), vehicle: saline with Tween-80
  T/C: 110 % of control

## COc1cc(Cc2nnc(N)nc2N)cc(OC)c1OC
dose: 100.0 mg/kg/injection, schedule: Q01DX001 (ip), vehicle: Klucel (hydroxypropylcellulose) (HPC)
  T/C: 100 % of control
dose: 200.0 mg/kg/injection, schedule: Q01DX001 (ip), vehicle: Klucel (hydroxypropylcellulose) (HPC)
  T/C: 114 % of control
dose: 400.0 mg/kg/injection, schedule: Q01DX001 (ip), vehicle: Klucel (hydroxypropylcellulose) (HPC)
  T/C: 96 % of control

## CCOC(=O)Nc1ccc2nc(Sc3ccc(Cl)cc3)sc2c1
[11]
  T/C: 103 % of control
[12]
  T/C: 100 % of control
[13]
  T/C: 106 % of control

## COc1cccc(OC)c1OCCN
[9]
  T/C: 111 % of control
[10]
  T/C: 99 % of control

## CCCCCC(CN(C)C)C(=O)/C=C/c1ccccc1 (stereo not drawn)
[7]
  T/C: 102 % of control
[8]
  T/C: 94 % of control
[9]
  T/C: 104 % of control
[10]
  T/C: 105 % of control

## CC(C)C(NC(=O)[C@@H](C(C)C)N1C(=O)c2ccccc2C1=O)C(=O)O (stereo partly drawn)
[4]
  T/C: 101 % of control
[5]
  T/C: 101 % of control
[6]
  T/C: 99 % of control and 88 % of control
dose: 200.0 mg/kg/injection, schedule: Q01DX005 (ip), vehicle: saline with Tween-80
  T/C: 100 % of control

## S=C1NCC[Se]1
dose: 6.25 mg/kg/injection, schedule: Q01DX009 (ip), vehicle: DMSO
  T/C: 103 % of control
dose: 12.5 mg/kg/injection, schedule: Q01DX009 (ip), vehicle: DMSO
  T/C: 105 % of control
